Reference: patent US4713374A, “Ganglioside derivatives” (priority 1984, dated 1987)

System: PC12 cells
Test: Neurite sprouting in PC12 cells
Type: cell-based
Details: 10^-6 M, serum-free vehicle with 50 ng/ml NGF, third day; controls 21.5
Protocol: The cells are then washed three times in a serum-free vehicle. […] This effect is evaluated by counting the number of cells with neurites at the third day.

SMILES | % of the no. of cells with neurites at 3rd day
CCCCCCCCCCCCC/C=C/[C@@H](O)[C@H](CO[C@@H]1O[C@H](CO)[C@@H](O[C@@H]2O[C@H](CO)[C@H](O[C@@H]3O[C@H](CO)[C@H](O)[C@H](O[C@@H]4O[C@H](CO)[C@H](O)[C@H](O)[C@H]4O)[C@H]3NC(C)=O)[C@H](O[C@]3(C(=O)NCCCN(C)C)C[C@H](O)[C@@H](NC(C)=O)[C@H]([C@H](O)[C@H](O)CO)O3)[C@H]2O)[C@H](O)[C@H]1O)NC(=O)CCCCCCCCCCCCCCCCC [3-dimethylaminopropyl-1-amide of GM1, 3-dimethylaminopropyl-1-amide of the ganglioside GM1] | 37.3%
CCCCCCCCCCCCC/C=C/[C@@H](O)[C@H](CO[C@@H]1O[C@H](CO)[C@@H](O[C@@H]2O[C@H](CO)[C@H](O[C@@H]3O[C@H](CO)[C@H](O)[C@H](O[C@@H]4O[C@H](CO)[C@H](O)[C@H](O)[C@H]4O)[C@H]3NC(C)=O)[C@H](O[C@]3(C(=O)NCCCCCCO)C[C@H](O)[C@@H](NC(C)=O)[C@H]([C@H](O)[C@H](O)CO)O3)[C@H]2O)[C@H](O)[C@H]1O)NC(=O)CCCCCCCCCCCCCCCCC [6-hydroxyhexyl-1-amide of GM1, 6-hydroxyhexyl-1-amide of the ganglioside GM1] | 36.4%
C=CCOC(=O)[C@@]1(O[C@@H]2[C@@H](O)[C@H](O[C@H]3[C@H](O)[C@@H](O)[C@H](OC[C@H](NC(=O)CCCCCCCCCCCCCCCCC)[C@H](O)/C=C/CCCCCCCCCCCCC)O[C@@H]3CO)O[C@H](CO)[C@@H]2O[C@@H]2O[C@H](CO)[C@H](O)[C@H](O[C@@H]3O[C@H](CO)[C@H](O)[C@H](O)[C@H]3O)[C@H]2NC(C)=O)C[C@H](O)[C@@H](NC(C)=O)[C@H]([C@H](O)[C@H](O)CO)O1 [Allylic ester of GM1, Allyl ester of the ganglioside GM1] | 31.5%
CCCCCCCCCCCCC/C=C/[C@@H](OC(C)=O)[C@H](CO[C@@H]1O[C@H](COC(C)=O)[C@@H](O[C@@H]2O[C@H](COC(C)=O)[C@H](O[C@@H]3O[C@H](COC(C)=O)[C@H](OC(C)=O)[C@H](O[C@@H]4O[C@H](COC(C)=O)[C@H](OC(C)=O)[C@H](OC(C)=O)[C@H]4OC(C)=O)[C@H]3NC(C)=O)[C@H](O[C@]3(C(N)=O)C[C@H](OC(C)=O)[C@@H](NC(C)=O)[C@H]([C@H](OC(C)=O)[C@@H](COC(C)=O)OC(C)=O)O3)[C@H]2OC(C)=O)[C@H](OC(C)=O)[C@H]1OC(C)=O)NC(=O)CCCCCCCCCCCCCCCCC [Amide of peracetylated GM1, Peracetylated derivative of the amide of the ganglioside GM1] | 31.4%
CCCCCCCCCCCCC/C=C/[C@@H](O)[C@H](CO[C@@H]1O[C@H](CO)[C@@H](O[C@@H]2O[C@H](CO)[C@H](O[C@@H]3O[C@H](CO)[C@H](O)[C@H](O[C@@H]4O[C@H](CO)[C@H](O)[C@H](O)[C@H]4O)[C@H]3NC(C)=O)[C@H](O[C@]3(C(=O)NCc4ccccc4)C[C@H](O)[C@@H](NC(C)=O)[C@H]([C@H](O)[C@H](O)CO)O3)[C@H]2O)[C@H](O)[C@H]1O)NC(=O)CCCCCCCCCCCCCCCCC [Benzylamide of GM1, Benzylamide of the ganglioside GM1] | 30.8%
CCCCCCCCCCCCC/C=C/[C@@H](O)[C@H](CO[C@@H]1O[C@H](CO)[C@@H](O[C@@H]2O[C@H](CO)[C@H](O[C@@H]3O[C@H](CO)[C@H](O)[C@H](O[C@@H]4O[C@H](CO)[C@H](O)[C@H](O)[C@H]4O)[C@H]3NC(C)=O)[C@H](O[C@]3(C(=O)OCc4ccccc4)C[C@H](O)[C@@H](NC(C)=O)[C@H]([C@H](O)[C@H](O)CO)O3)[C@H]2O)[C@H](O)[C@H]1O)NC(=O)CCCCCCCCCCCCCCCCC [Benzylic ester of GM1, Benzyl ester of the ganglioside GM1] | 28.3%
CCCCCCCCCCCCC/C=C/[C@@H](O)[C@H](CO[C@@H]1O[C@H](CO)[C@@H](O[C@@H]2O[C@H](CO)[C@H](O[C@@H]3O[C@H](CO)[C@H](O)[C@H](O[C@@H]4O[C@H](CO)[C@H](O)[C@H](O)[C@H]4O)[C@H]3NC(C)=O)[C@H](O[C@]3(C(=O)N(CC)CC)C[C@H](O)[C@@H](NC(C)=O)[C@H]([C@H](O)[C@H](O)CO)O3)[C@H]2O)[C@H](O)[C@H]1O)NC(=O)CCCCCCCCCCCCCCCCC [Diethylamide of GM1, Diethylamide of the ganglioside GM1] | 28.5%
CCCCCCCCCCCCC/C=C/[C@@H](O)[C@H](CO[C@@H]1O[C@H](CO)[C@@H](O[C@@H]2O[C@H](CO)[C@H](O[C@@H]3O[C@H](CO)[C@H](O)[C@H](O[C@@H]4O[C@H](CO)[C@H](O)[C@H](O)[C@H]4O)[C@H]3NC(C)=O)[C@H](O[C@]3(C(=O)N(C)C)C[C@H](O)[C@@H](NC(C)=O)[C@H]([C@H](O)[C@H](O)CO)O3)[C@H]2O)[C@H](O)[C@H]1O)NC(=O)CCCCCCCCCCCCCCCCC [Dimethylamide of GM1, Dimethylamide of the ganglioside GM1] | 34.3%
CCCCCCCCCCCCC/C=C/[C@@H](O)[C@H](CO[C@@H]1O[C@H](CO)[C@@H](O[C@@H]2O[C@H](CO)[C@H](O[C@@H]3O[C@H](CO)[C@H](O)[C@H](O[C@@H]4O[C@H](CO)[C@H](O)[C@H](O)[C@H]4O)[C@H]3NC(C)=O)[C@H](O[C@]3(C(=O)NCCN(C)C)C[C@H](O)[C@@H](NC(C)=O)[C@H]([C@H](O)[C@H](O)CO)O3)[C@H]2O)[C@H](O)[C@H]1O)NC(=O)CCCCCCCCCCCCCCCCC [Dimethylaminoethylamide of GM1, Dimethylaminoethylamide of the ganglioside GM1] | 34.8%
CCCCCCCCCCCCC/C=C/[C@@H](O)[C@H](CO[C@@H]1O[C@H](CO)[C@@H](O[C@@H]2O[C@H](CO)[C@H](O[C@@H]3O[C@H](CO)[C@H](O)[C@H](O[C@@H]4O[C@H](CO)[C@H](O)[C@H](O)[C@H]4O)[C@H]3NC(C)=O)[C@H](O[C@]3(C(=O)NCCO)C[C@H](O)[C@@H](NC(C)=O)[C@H]([C@H](O)[C@H](O)CO)O3)[C@H]2O)[C@H](O)[C@H]1O)NC(=O)CCCCCCCCCCCCCCCCC [Ethanolamide of GM1, Ethanolamide of the ganglioside GM1] | 41.2%
CCCCCCCCCCCCC/C=C/[C@@H](O)[C@H](CO[C@@H]1O[C@H](CO)[C@@H](O[C@@H]2O[C@H](CO)[C@H](O[C@@H]3O[C@H](CO)[C@H](O)[C@H](O[C@@H]4O[C@H](CO)[C@H](O)[C@H](O)[C@H]4O)[C@H]3NC(C)=O)[C@H](O[C@]3(C(=O)NCC)C[C@H](O)[C@@H](NC(C)=O)[C@H]([C@H](O)[C@H](O)CO)O3)[C@H]2O)[C@H](O)[C@H]1O)NC(=O)CCCCCCCCCCCCCCCCC [Ethylamide of GM1, Ethylamide of the ganglioside GM1] | 32.2%
CCCCCCCCCCCCC/C=C/[C@@H](O)[C@H](CO[C@@H]1O[C@H](CO)[C@@H](O[C@@H]2O[C@H](CO)[C@H](O[C@@H]3O[C@H](CO)[C@H](O)[C@H](O[C@@H]4O[C@H](CO)[C@H](O)[C@H](O)[C@H]4O)[C@H]3NC(C)=O)[C@H](O[C@]3(C(=O)OCC)C[C@H](O)[C@@H](NC(C)=O)[C@H]([C@H](O)[C@H](O)CO)O3)[C@H]2O)[C@H](O)[C@H]1O)NC(=O)CCCCCCCCCCCCCCCCC [Ethylic ester of GM1, Ethyl ester of the ganglioside GM1] | 37.1%
CCCCCCCCCCCCC/C=C/[C@@H](O)[C@H](CO[C@@H]1O[C@H](CO)[C@@H](O[C@@H]2O[C@H](CO)[C@H](O[C@@H]3O[C@H](CO)[C@H](O)[C@H](O[C@@H]4O[C@H](CO)[C@H](O)[C@H](O)[C@H]4O)[C@H]3NC(C)=O)[C@H](O[C@]3(C(=O)N(C)CC)C[C@H](O)[C@@H](NC(C)=O)[C@H]([C@H](O)[C@H](O)CO)O3)[C@H]2O)[C@H](O)[C@H]1O)NC(=O)CCCCCCCCCCCCCCCCC [Ethylmethylamide of GM1, Ethylmethylamide of the ganglioside GM1] | 35.3%
CCCCCCCCCCCCC/C=C/[C@@H](O)[C@H](CO[C@@H]1O[C@H](CO)[C@@H](O[C@@H]2O[C@H](CO)[C@H](O[C@@H]3O[C@H](CO)[C@H](O)[C@H](O[C@@H]4O[C@H](CO)[C@H](O)[C@H](O)[C@H]4O)[C@H]3NC(C)=O)[C@H](O[C@]3(C(=O)OCC(=O)OCC)C[C@H](O)[C@@H](NC(C)=O)[C@H]([C@H](O)[C@H](O)CO)O3)[C@H]2O)[C@H](O)[C@H]1O)NC(=O)CCCCCCCCCCCCCCCCC [Etoxycarbonylmethylic ester of GM1, Ethoxycarbonylmethyl ester of the ganglioside GM1] | 27.3%
CCCCCCCCCCCCC/C=C/[C@@H](O)[C@H](CO[C@@H]1O[C@H](CO)[C@@H](O[C@@H]2O[C@H](CO)[C@H](O[C@@H]3O[C@H](CO)[C@H](O)[C@H](O[C@@H]4O[C@H](CO)[C@H](O)[C@H](O)[C@H]4O)[C@H]3NC(C)=O)[C@H](O[C@]3(C(=O)NC(C)C)C[C@H](O)[C@@H](NC(C)=O)[C@H]([C@H](O)[C@H](O)CO)O3)[C@H]2O)[C@H](O)[C@H]1O)NC(=O)CCCCCCCCCCCCCCCCC [Isopropylamide of GM1, Isopropylamide of the ganglioside GM1] | 31.4%
CCCCCCCCCCCCC/C=C/[C@@H](O)[C@H](CO[C@@H]1O[C@H](CO)[C@@H](O[C@@H]2O[C@H](CO)[C@H](O[C@@H]3O[C@H](CO)[C@H](O)[C@H](O[C@@H]4O[C@H](CO)[C@H](O)[C@H](O)[C@H]4O)[C@H]3NC(C)=O)[C@H](O[C@]3(C(=O)OC(C)C)C[C@H](O)[C@@H](NC(C)=O)[C@H]([C@H](O)[C@H](O)CO)O3)[C@H]2O)[C@H](O)[C@H]1O)NC(=O)CCCCCCCCCCCCCCCCC [Isopropylic ester of GM1, Isopropyl ester of the ganglioside GM1] | 37.0%
